Experimental data published in publication PMC8151276, “An Integrated Approach toward NanoBRET Tracers for Analysis of GPCR Ligand Engagement” (Molecules, 2021).

Columns and labels:
Format in all cases: binding
FZD8 = target: T1, FZD8 (Homo sapiens, UniProt Q9H461); test: NanoBRET screen HiBiT-FZD8 in HEK293; details: FZD8
T1 construct: purchased Promega (in-house HiBiT-GPCR construct library, NanoBRET)
Description: (§1) Each tracer candidate was screened across the entire library of HiBiT-GPCR constructs using NanoBRET as the detection modality. As depicted in Figure 4A, the specificity of interactions was evaluated through decrease in BRET due to competitive displacement of a bound tracer by excess parental compound. Each tracer was analyzed for binding to each HiBiT-GPCR fusion in the absence and in the presence of competing parental compound. Briefly, HEK293 cells were transfected with HiBiT-GPCR constructs diluted into promoterless DNA to reduce expression and maximize translocation to the cell surface. Each tracer candidate was then screened at concentrations of 1 μM and 0.1 μM across cells expressing these fusions. Cells were treated for 1.5 h with tracer either alone or in the presence of 20 μM competing parental compound (i.e., control). BRET was measured upon addition of purified LgBiT and subsequent complementation with HiBiT genetically fused to a GPCR. The specificity of interactions was assessed through a decrease in BRET signal due to competitive displacement of the bound tracer. To further gauge the robustness of these interactions, the fold response over the control (i.e., BRETtracer/BRETcontrol) was calculated. We chose a 1.5-fold response, which translates to ≥7-fold signal over noise as the minimal threshold required to score an interaction as positive. […]. Below we highlight the screening results obtained for our exemplary fluorescent tracers based on Clozapine, Amitriptyline and AZD1283.
(§2) HiBiT-GPCR DNA constructs were diluted in 10 mM Tris pH 8 to a final concentration of 0.01 μg/μL, arrayed in 96-well plates and stored at −20 °C. For transfection, HEK293 cells were suspended in Opti-MEM (without phenol red) supplemented with 2% fetal bovine serum (Seradigm) and 100 units/mL penicillin–streptomycin (Gibco) at a final concentration of 220,000 cells/mL and dispensed into white 96-well plates at 90 μL/well. Subsequent transfections and screens were carried using an Agilent Bravo Automated Liquid Handling Platform. First, the 96-well HiBiT DNA arrays were diluted 25-fold in Opti-MEM (without serum or phenol red) to a final concentration of 0.0004 μg/μL and 20 μL of the diluted DNAs were transferred into new 96-well plates. Next, promoterless carrier DNA (1 μg/μL) was diluted 25-fold (0.04 μg/μL) and then dispensed into the diluted arrays at 20 μL/well. Following brief mixing, Viafect transfection reagent (Promega) diluted 16-fold into Opti-MEM was dispensed into the plates at 40 μL/well. After mixing by pipetting, plates were incubated for 10 min on the pipetting station deck. The DNA-transfection reagent complexes were then added to plates containing cells. To facilitate the screen, 10 μL of DNA-transfection reagent complexes were added in duplicates to the top 4 and bottom 4 rows, resulting in two identical 48-well arrays per plate. Plates with transfected cells were incubated for 18–20 h at 37 °C/5% CO2. A screen of each tracer across the entire library using two different concentrations requires duplicate plates of transfected cells. Depending on the number of tracers being screened, transfections can be scaled up using the same ratios. The next day, for each tracer, four 20× screening solutions in tracer dilution buffer (Promega) were prepared: two duplicates at final concentration of 20 μM and two duplicates at a final concentration of 2 μM. A competing unmodified compound was added to one of each duplicate at a final concentration of 400 μM. The four resulting solutions were diluted 4-fold in Opti-MEM without serum or phenol red to generate 5× solutions (5 µM and 0.5 µM tracer +/− 100 μM competing compound). To screen the library, a BioTek MultiFlo FX liquid dispenser was used to dispense 22.5 µL of tracer solution to the top 4 rows and 22.5 µL tracer + competing compound solution to the 4 bottom rows. Plates were briefly mixed on an orbital shaker and incubated for 1.5 h at room temperature. […]

EDNRA = target: T2, EDNRA (Homo sapiens, UniProt P25101); test: NanoBRET screen HiBiT-EDNRA in HEK293; details: EDNRA
T2 construct: purchased Promega (in-house HiBiT-GPCR construct library, NanoBRET)
T2 sequence (P25101 21-427): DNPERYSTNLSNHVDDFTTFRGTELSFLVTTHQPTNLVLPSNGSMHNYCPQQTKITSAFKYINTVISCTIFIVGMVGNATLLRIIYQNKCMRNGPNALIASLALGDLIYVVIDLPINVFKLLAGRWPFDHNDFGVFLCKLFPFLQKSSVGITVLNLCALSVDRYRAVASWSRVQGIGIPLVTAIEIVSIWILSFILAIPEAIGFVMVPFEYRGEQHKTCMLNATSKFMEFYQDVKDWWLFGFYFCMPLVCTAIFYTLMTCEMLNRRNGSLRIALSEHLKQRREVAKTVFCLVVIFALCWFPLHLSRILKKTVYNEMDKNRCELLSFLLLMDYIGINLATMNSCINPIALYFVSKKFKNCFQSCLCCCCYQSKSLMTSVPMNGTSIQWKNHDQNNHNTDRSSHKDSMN
Description: as §1, §2

SSTR3 = target: T3, SSTR3 (Homo sapiens, UniProt P32745); test: NanoBRET screen HiBiT-SSTR3 in HEK293; details: SSTR3
T3 construct: purchased Promega (in-house HiBiT-GPCR construct library, NanoBRET)
T3 sequence (P32745 whole entry): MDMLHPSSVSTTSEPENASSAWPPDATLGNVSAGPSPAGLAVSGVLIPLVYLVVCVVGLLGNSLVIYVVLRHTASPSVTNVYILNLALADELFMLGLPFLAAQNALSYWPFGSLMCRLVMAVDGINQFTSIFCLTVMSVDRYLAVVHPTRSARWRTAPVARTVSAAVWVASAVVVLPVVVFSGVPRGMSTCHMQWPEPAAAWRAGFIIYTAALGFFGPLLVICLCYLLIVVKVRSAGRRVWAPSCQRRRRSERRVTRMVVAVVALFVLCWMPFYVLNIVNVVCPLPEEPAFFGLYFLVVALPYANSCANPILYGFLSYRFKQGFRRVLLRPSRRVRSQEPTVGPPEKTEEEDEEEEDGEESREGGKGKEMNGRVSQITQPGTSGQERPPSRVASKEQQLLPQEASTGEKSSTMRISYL
Description: as §1, §2

T1 sequence (Q9H461 28-694): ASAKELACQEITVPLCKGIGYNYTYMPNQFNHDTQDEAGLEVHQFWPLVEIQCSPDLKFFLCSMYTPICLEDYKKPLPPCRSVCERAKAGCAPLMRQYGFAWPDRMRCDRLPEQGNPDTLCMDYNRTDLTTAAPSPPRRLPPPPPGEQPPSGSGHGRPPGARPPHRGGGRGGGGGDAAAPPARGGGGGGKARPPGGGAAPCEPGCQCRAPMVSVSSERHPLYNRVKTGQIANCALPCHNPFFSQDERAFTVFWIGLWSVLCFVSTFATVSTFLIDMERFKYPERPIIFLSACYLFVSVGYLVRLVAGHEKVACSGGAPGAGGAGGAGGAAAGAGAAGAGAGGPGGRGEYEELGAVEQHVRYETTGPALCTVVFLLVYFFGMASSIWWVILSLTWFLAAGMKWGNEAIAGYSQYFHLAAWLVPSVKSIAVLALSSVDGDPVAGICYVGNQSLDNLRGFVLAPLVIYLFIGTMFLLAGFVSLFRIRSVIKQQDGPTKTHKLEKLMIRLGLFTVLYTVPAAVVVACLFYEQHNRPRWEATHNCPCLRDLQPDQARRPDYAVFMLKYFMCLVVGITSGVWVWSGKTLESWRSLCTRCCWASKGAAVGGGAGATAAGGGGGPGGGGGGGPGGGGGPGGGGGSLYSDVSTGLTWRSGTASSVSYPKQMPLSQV

| SMILES | NanoBRET Fold Response (FZD8; tracer 0.1μM) | NanoBRET Fold Response (FZD8; tracer 1μM) | NanoBRET Fold Response (EDNRA; tracer 0.1μM) | NanoBRET Fold Response (EDNRA; tracer 1μM) | NanoBRET Fold Response (SSTR3; tracer 0.1μM) | NanoBRET Fold Response (SSTR3; tracer 1μM) |
| --- | --- | --- | --- | --- | --- | --- |
| O=C(CCc1ccc2n1[B-](F)(F)[N+]1=C(c3ccc[nH]3)C=CC1=C2)NCCOCCOCCNC(=O)OCCOCCN1CCN(C2=Nc3ccccc3Sc3ccccc32)CC1 [Quetiapine-a-2-NB590] | 1.02 | 1.08 | 1.03 | 1.04 | 0.96 | 0.74 |
| Cc1nc2n(c(=O)c1CCN1CCC(c3noc4cc(F)ccc34)CC1)CCCC2OC(=O)NCCOCCOCCOCCOCCNC(=O)CCc1ccc2n1[B-](F)(F)[N+]1=C(c3ccc[nH]3)C=CC1=C2 (stereo not drawn) [Risperidone-2-NB590] | 1.02 | 1.12 | 1.04 | 0.97 | 0.92 | 0.99 |
| CC(C)N(CC[C@H](c1ccccc1)c1cc(CCNC(=O)CCOCCOCCOCCOCCNC(=O)CCc2ccc3n2[B-](F)(F)[N+]2=C(c4ccc[nH]4)C=CC2=C3)ccc1O)C(C)C [Tolterodine-2-NB590] | 1.07 | 1.12 | 0.94 | 1.01 | 1.08 | 1.17 |
| CC(C)N(CC[C@H](c1ccccc1)c1cc(CCNC(=O)c2ccc(CNC(=O)CCc3ccc4n3[B-](F)(F)[N+]3=C(c5ccc[nH]5)C=CC3=C4)cc2)ccc1O)C(C)C [Tolterodine-BZ-NB590] | 1.00 | 1.02 | 1.05 | 1.11 | 1.01 | 1.04 |
| CCCn1c(=O)c2[nH]c(-c3ccc(OCC(=O)NCCNC(=O)CCOCCNC(=O)c4ccc(CNC(=O)CCc5ccc6n5[B-](F)(F)[N+]5=C(c7ccc[nH]7)C=CC5=C6)cc4)cc3)nc2n(CCC)c1=O [XAC-3-NB590] | 0.95 | 1.02 | 1.12 | 1.15 | 0.99 | 0.98 |
